Reference: ChEMBL document CHEMBL1201862, “PubChem BioAssay data set” (2004)
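Step 1: Grow cells in 96-well plates. Step 2: Expose to compound for 48 hours at 5 concentrations. Step 3: Interpolate endpoints linearly; if unreached, use highest concentration. GI50 = concentration required for 50% inhibition of growth.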 Activity calls are given as the source filed them. Rule as the data show it: active = GI50 up to about 1.1 µM and inactive = higher.

Key:
Assay in all cases: NCI tumour cell line growth inhibition, 48 h
[1] = system: A498
[2] = system: BT-549
[3] = system: CAKI-1
[4] = system: CCRF-CEM
[5] = system: COLO 205
[6] = system: HOP-92
[7] = system: Hs-578T
[8] = system: IGROV-1
[9] = system: KM12
[10] = system: M14
[11] = system: OVCAR-3
[12] = system: PC-3
[13] = system: SF-268
[14] = system: SF-295
[15] = system: SK-MEL-2
[16] = system: SK-MEL-5
[17] = system: SK-OV-3
[18] = system: T47D

SMILES	GI50 [1]	GI50 [2]	GI50 [3]	GI50 [4]	GI50 [5]	GI50 [6]	GI50 [7]	GI50 [8]	GI50 [9]	GI50 [10]	GI50 [11]	GI50 [12]	GI50 [13]	GI50 [14]	GI50 [15]	GI50 [16]	GI50 [17]	GI50 [18]
Nc1nc(N)c2ncn(Cc3ccccc3)c2n1	> 100 µM (inactive)	> 100 µM (inactive)	> 100 µM (inactive)	> 100 µM (inactive)	> 100 µM (inactive)	> 100 µM (inactive)	> 100 µM (inactive)	> 100 µM (inactive)	> 100 µM (inactive)	> 100 µM (inactive)	> 100 µM (inactive)	> 100 µM (inactive)	> 100 µM (inactive)	> 100 µM (inactive)	> 100 µM (inactive)	> 100 µM (inactive)	> 100 µM (inactive)	> 100 µM (inactive)
O=C(O)c1ccc(N2C=[N+]3C(=Nc4ccccc43)C2)cc1	> 100 µM (inactive)	> 100 µM (inactive)	> 100 µM (inactive)	> 100 µM (inactive)	> 100 µM (inactive)		> 100 µM (inactive)	> 100 µM (inactive)	> 100 µM (inactive)	> 100 µM (inactive)	> 100 µM (inactive)	> 100 µM (inactive)	> 100 µM (inactive)	> 100 µM (inactive)	> 100 µM (inactive)	> 100 µM (inactive)	> 100 µM (inactive)	> 100 µM (inactive)
CC(C)(C)OC(=O)N1[C@@H]2Cc3ccc(N)cc3[C@@]1(C)c1ccccc12	30.5 µM (inactive)	18.7 µM (inactive)	45.2 µM (inactive)	25.8 µM (inactive)		23.9 µM (inactive)	36.6 µM (inactive)	46.7 µM (inactive)	33 µM (inactive)	24 µM (inactive)	20.8 µM (inactive)	29.9 µM (inactive)	37.3 µM (inactive)	28.1 µM (inactive)	20 µM (inactive)	0.9 µM (active)	34 µM (inactive)	17.7 µM (inactive)
N#Cc1cnn2c1n[n+]([O-])c1ccc(Cl)cc12	19.3 µM (inactive)	12.8 µM (inactive)	1.26 µM (inactive)	1.75 µM (inactive)	16.6 µM (inactive)	2.19 µM (inactive)	5.3 µM (inactive)	4.14 µM (inactive)	25.6 µM (inactive)	8.13 µM (inactive)	2.96 µM (inactive)	14.7 µM (inactive)	9.73 µM (inactive)	14.7 µM (inactive)	7.31 µM (inactive)	12.4 µM (inactive)	8.61 µM (inactive)	17.3 µM (inactive)
O=c1/c(=C/c2ccc([N+](=O)[O-])o2)sc2n1[C@@H](c1ccc(Cl)cc1)C=C(c1cc(F)c(Cl)cc1Cl)N=2	30.7 µM (inactive)	15.1 µM (inactive)	28.7 µM (inactive)	4.83 µM (inactive)	3.94 µM (inactive)	12.9 µM (inactive)	56.5 µM (inactive)	15.8 µM (inactive)	24.5 µM (inactive)	14.6 µM (inactive)		11.5 µM (inactive)	13.8 µM (inactive)	21.3 µM (inactive)	5.04 µM (inactive)	13.9 µM (inactive)	14.8 µM (inactive)	19 µM (inactive)
CC(C)c1ccc(NC(=S)NC(=O)c2ccccc2)cc1	22.9 µM (inactive)	24.9 µM (inactive)	20.5 µM (inactive)	11.4 µM (inactive)	16.3 µM (inactive)	40.9 µM (inactive)	31.8 µM (inactive)	25.4 µM (inactive)	18.2 µM (inactive)	17.3 µM (inactive)	18.1 µM (inactive)	36.5 µM (inactive)	21.4 µM (inactive)	14.1 µM (inactive)	20 µM (inactive)	13.4 µM (inactive)	42 µM (inactive)	18.7 µM (inactive)
